Assays:
human SGLT1 = target: T1, human SGLT1 (Homo sapiens, UniProt P13866); assay: Compound washout study, cells expressing human SGLT1
T1 sequence (P13866 1-664): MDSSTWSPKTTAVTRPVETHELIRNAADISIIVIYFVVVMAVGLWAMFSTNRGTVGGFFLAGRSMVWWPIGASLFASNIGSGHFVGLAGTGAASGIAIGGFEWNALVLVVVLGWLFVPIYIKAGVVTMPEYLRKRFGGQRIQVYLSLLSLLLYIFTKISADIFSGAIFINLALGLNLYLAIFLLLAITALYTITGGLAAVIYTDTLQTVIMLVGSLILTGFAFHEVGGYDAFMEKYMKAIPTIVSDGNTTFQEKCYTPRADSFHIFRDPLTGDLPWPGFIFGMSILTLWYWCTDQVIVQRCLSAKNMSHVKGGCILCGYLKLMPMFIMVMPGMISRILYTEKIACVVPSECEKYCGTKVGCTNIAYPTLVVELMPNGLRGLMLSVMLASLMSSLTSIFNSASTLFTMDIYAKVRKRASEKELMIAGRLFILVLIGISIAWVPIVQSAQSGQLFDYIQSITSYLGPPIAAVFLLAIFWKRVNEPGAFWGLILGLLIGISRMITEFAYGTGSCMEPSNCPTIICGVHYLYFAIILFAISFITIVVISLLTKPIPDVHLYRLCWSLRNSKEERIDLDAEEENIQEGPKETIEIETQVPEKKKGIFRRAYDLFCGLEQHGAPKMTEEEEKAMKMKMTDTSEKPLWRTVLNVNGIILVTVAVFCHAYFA
Text: Cells expressing human SGLT2 were studied using the above protocol. […] Cells expressing human SGLT2 were studied using the above protocol.

human SGLT2 = target: T2, human SGLT2 (Homo sapiens, UniProt P31639); assay: 14C-AMG uptake assay, HEK293 cells expressing human SGLT2; format: cell-based; parameters: expressed in transfected cells; settings: mean ± SD
T2 sequence (P31639 1-672): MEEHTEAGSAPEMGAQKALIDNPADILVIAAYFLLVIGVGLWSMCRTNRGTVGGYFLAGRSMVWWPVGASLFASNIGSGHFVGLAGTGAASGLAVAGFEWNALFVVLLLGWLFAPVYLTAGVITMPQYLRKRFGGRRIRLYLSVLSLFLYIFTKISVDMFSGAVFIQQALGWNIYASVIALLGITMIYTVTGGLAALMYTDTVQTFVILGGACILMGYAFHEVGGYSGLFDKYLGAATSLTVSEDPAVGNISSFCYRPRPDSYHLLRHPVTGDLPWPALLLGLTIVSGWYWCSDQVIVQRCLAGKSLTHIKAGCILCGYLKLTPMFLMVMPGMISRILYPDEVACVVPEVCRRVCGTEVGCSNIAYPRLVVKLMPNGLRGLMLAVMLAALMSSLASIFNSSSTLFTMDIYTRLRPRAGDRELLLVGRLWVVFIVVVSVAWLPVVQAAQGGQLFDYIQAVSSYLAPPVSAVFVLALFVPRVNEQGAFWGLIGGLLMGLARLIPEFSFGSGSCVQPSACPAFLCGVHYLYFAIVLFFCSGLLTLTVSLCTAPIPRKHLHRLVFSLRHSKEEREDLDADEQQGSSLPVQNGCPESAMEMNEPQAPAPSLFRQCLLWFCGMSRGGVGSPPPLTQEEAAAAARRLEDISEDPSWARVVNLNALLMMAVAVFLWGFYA
Text: Methods for generating cell lines expressing mouse, rat, and dog SGLT1 and SGLT2 are published (Powell et al. [2013b], [2014]). Full-length coding sequence of human SGLT1 (NP_000334) and human SGLT2 (NP_003032.1) with an HA-tag at the N-terminus were cloned into the mammalian expression vector pIRESpuro2 (Clontech, Mountain View, CA). HEK293 cells (ATCC, Manassas, VA) were transfected with the pIRESpuro2 vector containing human SGLT1 or SGLT2 and bulk stable cell lines were selected in the presence of 0.5 μg/mL of puromycin.
Cell lines expressing SGLT1 or SGLT2 were plated into poly-D-lysine-coated 384-well plates, and culture overnight in cell growth medium. Cells were washed, and then incubated in uptake buffer ([…], […] KCl, […] CaCl2, […] MgCl2, […] HEPES/Tris, 1 mg/mL of bovine serum albumin, pH7.4) containing [^14C]α-methylglucopyranoside (^14C-AMG), a nonmetabolizable glucose analog specific for sodium-dependent glucose transporters (Wright and Turk [2004]). The inhibition of SGLT1 or SGLT2 was determined by measuring SGLT1/2-mediated ^14C-AMG uptake in the presence of increasing compound concentrations of LP-925219. […] Standard sigmoidal dose–response model curves were fitted, and the IC50 value was computed as the LP-925219 concentration that inhibited the ^14C-AMG uptake by 50% between baseline and maximum uptake.

Structure (SMILES): COc1ccc(Cc2cc([C@@H]3O[C@H](SC)[C@@H](O)[C@H](O)[C@H]3O)ccc2Cl)cc1 [LP-925219]
- IC50 (human SGLT1; no wash protocol): 13 nM
- IC50 (human SGLT1; washout protocol, 18-20 h recovery after 30 min treatment): 1310 nM
- IC50 (human SGLT2): 2.1 ± 0.5 nM

— publication PMC4448982, “LP-925219 maximizes urinary glucose excretion in mice by inhibiting both renal SGLT1 and SGLT2” (Pharmacology Research & Perspectives, 2015)
